This is an account of results in article PMC7026418, “The kinase polypharmacology landscape of clinical PARP inhibitors” (Scientific Reports, 2020).

Like-named read-outs stand apart in the source and are kept apart here.

Some targets named below: CAMK1 (Homo sapiens, UniProt Q14012); INSRR (Homo sapiens, UniProt P14616); MYO3A (Homo sapiens, UniProt Q8NEV4); PAK4 (Homo sapiens, UniProt O96013).
Assay in all cases: biochemical
Common to all, as to parameters: DiscoveRx KINOMEscan active site-directed competition binding; percent of control kinase bound to immobilised ligand

Another assay concerns the target T1, ABL1-nonphosphorylated (Homo sapiens, UniProt P00519).
T1 construct: nonphosphorylated

In a further assay the target is T2, ADCK4 (Homo sapiens, UniProt Q96D53).
T2 construct: gene COQ8B
T2 sequence (Q96D53 1-544): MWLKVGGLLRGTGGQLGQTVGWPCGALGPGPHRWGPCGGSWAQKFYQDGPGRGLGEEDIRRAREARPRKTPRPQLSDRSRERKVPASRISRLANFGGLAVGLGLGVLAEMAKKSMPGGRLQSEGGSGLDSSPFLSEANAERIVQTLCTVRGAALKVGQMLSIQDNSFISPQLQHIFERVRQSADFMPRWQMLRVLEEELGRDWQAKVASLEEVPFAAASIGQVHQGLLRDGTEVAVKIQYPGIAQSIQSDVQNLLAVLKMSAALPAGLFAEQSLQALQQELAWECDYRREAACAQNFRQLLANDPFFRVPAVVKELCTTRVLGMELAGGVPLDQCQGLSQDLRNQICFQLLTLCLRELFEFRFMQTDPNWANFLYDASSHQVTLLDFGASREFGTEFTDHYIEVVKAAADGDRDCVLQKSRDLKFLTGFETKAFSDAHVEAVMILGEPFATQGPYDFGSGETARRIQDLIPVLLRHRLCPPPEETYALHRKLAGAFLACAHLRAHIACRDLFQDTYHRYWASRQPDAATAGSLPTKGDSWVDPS

In a further assay the target is T3, DLK (Homo sapiens, UniProt Q12852).
T3 construct: gene MAP3K12
T3 sequence (Q12852 1-859): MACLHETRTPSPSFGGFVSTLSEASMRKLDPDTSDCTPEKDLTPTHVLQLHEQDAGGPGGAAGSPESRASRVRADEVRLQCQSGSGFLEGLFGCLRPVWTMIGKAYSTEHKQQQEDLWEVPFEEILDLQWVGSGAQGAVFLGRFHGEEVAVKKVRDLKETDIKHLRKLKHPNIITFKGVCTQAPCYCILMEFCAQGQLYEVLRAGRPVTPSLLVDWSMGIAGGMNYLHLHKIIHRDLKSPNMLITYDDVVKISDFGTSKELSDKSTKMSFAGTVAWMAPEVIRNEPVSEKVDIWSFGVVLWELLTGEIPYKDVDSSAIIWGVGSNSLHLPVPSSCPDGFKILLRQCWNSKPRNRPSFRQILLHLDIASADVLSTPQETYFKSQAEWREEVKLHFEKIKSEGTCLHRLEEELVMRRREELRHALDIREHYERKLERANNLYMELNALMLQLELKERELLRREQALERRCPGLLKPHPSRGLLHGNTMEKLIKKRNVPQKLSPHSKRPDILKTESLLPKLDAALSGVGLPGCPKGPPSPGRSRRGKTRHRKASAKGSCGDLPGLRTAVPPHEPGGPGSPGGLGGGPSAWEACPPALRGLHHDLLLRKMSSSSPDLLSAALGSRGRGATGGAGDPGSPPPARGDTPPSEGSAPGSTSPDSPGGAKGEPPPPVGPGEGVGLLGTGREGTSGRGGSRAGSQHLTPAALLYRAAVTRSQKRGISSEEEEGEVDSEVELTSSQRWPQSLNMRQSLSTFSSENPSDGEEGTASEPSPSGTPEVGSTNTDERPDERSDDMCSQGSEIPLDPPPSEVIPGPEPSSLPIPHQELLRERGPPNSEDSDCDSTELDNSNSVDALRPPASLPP

For the next assay, the target named is T4, TIE2 (Homo sapiens, UniProt Q02763).
T4 construct: gene TEK
T4 sequence (Q02763 whole entry): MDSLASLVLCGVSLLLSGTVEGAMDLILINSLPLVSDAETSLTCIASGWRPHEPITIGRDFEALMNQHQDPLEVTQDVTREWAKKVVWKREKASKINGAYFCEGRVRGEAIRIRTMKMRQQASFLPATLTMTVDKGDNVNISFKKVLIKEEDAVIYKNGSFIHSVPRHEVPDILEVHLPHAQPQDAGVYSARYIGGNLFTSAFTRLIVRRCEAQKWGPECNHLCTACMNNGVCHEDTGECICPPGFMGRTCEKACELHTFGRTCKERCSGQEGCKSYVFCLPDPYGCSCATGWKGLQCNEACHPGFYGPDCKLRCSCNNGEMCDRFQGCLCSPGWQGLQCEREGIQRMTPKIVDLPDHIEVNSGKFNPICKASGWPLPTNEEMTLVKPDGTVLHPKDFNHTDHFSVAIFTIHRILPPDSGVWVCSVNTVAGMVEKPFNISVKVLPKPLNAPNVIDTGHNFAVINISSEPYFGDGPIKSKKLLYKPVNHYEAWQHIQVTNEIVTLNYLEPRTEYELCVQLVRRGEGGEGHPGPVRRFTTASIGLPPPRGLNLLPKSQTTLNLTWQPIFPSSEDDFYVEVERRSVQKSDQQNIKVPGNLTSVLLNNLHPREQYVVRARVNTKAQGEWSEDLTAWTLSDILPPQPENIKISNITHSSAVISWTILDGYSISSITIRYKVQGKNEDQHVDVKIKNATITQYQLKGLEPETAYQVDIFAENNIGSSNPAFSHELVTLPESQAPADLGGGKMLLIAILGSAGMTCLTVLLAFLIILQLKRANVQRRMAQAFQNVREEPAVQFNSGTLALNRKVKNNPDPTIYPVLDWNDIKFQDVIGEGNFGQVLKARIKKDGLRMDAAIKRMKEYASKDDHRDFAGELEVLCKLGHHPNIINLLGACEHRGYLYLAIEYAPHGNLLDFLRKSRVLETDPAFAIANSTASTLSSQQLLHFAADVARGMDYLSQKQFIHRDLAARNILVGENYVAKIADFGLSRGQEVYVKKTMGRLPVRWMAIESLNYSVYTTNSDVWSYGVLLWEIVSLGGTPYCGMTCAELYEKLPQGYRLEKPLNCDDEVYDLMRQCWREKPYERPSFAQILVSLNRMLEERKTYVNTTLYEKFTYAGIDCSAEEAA

The target in the next assay is T5, TLK1 (Homo sapiens, UniProt Q9UKI8).
T5 sequence (Q9UKI8 1-766): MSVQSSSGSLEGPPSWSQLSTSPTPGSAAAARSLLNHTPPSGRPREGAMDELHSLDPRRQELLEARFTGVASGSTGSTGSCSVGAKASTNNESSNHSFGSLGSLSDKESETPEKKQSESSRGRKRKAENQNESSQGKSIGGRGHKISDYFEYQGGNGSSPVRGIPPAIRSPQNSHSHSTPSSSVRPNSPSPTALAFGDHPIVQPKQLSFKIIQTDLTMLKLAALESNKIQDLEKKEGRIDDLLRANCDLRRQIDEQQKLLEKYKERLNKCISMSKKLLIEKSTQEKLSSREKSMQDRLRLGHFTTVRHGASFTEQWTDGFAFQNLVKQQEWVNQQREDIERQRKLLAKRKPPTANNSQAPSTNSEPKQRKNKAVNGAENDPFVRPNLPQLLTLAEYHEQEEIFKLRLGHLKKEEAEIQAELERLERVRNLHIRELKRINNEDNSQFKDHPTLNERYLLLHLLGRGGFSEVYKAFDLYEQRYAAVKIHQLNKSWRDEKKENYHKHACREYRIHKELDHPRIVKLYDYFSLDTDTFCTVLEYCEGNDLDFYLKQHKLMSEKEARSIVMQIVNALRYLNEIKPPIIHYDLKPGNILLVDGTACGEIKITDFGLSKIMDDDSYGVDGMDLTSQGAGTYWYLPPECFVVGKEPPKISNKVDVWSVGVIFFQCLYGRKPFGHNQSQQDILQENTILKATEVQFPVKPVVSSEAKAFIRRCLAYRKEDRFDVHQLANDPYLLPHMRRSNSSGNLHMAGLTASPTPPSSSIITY

[1] abbreviates: read-out: Rucaparib / %Ctrl @ 10000nM, binding competition, % of control.
Setting [2] is: read-out: Talazoparib (BMN 673) / %Ctrl @ 10000nM.
The mark [3] stands for this setting: read-out: Niraparib (MK-4827) / %Ctrl @ 10000nM.
[4] abbreviates: read-out: Olaparib / %Ctrl @ 10000nM.

MYO3A, sequence (Q8NEV4 whole entry): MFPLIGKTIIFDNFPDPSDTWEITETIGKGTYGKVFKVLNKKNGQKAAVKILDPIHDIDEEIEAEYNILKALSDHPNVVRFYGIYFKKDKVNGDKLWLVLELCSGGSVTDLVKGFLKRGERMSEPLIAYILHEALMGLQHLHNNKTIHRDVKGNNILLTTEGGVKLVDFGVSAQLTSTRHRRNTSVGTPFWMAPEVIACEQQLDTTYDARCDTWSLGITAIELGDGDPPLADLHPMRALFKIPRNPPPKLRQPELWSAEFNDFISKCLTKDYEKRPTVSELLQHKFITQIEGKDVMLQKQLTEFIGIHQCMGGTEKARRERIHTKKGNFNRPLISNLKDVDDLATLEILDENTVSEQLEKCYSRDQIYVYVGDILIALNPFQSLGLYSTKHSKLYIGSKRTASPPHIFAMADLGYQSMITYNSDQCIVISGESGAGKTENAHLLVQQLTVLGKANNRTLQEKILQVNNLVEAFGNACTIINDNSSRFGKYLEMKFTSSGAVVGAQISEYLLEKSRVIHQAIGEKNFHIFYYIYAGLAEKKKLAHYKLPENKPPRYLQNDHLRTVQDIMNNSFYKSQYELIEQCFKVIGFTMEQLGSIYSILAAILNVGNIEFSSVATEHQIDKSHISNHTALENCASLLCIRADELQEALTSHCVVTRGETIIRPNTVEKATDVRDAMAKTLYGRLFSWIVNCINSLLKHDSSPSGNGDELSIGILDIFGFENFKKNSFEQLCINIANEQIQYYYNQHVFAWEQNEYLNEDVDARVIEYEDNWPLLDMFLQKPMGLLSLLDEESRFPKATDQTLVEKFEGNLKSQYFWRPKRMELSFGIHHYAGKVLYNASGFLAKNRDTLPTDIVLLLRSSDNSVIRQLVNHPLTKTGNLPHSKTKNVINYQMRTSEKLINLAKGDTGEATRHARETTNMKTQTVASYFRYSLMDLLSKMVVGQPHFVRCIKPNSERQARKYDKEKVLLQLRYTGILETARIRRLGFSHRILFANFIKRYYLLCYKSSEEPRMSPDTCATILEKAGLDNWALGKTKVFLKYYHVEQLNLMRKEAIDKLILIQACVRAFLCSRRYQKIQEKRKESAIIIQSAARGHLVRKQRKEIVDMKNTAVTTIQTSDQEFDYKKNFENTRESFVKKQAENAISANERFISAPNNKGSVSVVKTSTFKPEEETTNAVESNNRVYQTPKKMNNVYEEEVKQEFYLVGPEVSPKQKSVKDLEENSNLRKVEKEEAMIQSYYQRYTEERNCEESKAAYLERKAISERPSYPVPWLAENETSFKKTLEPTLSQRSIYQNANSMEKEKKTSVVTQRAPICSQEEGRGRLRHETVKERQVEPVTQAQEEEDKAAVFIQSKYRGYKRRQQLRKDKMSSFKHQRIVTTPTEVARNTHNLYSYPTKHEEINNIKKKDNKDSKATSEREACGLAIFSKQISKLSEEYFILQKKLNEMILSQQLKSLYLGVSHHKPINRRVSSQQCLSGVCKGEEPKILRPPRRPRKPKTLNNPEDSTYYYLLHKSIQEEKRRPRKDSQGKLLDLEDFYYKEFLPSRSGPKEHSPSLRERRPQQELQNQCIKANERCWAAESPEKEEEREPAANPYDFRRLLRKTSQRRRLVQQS
CAMK1, sequence (Q14012 whole entry): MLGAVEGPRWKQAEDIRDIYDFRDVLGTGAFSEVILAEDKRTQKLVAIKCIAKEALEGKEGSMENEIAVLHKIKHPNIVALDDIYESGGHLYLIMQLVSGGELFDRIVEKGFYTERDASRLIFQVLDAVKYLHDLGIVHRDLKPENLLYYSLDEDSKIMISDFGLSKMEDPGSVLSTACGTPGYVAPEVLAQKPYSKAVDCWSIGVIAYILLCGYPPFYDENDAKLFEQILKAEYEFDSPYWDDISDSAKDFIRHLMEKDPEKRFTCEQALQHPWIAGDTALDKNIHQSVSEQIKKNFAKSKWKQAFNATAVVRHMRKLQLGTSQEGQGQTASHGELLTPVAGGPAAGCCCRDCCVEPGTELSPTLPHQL
INSRR, sequence (P14616 whole entry): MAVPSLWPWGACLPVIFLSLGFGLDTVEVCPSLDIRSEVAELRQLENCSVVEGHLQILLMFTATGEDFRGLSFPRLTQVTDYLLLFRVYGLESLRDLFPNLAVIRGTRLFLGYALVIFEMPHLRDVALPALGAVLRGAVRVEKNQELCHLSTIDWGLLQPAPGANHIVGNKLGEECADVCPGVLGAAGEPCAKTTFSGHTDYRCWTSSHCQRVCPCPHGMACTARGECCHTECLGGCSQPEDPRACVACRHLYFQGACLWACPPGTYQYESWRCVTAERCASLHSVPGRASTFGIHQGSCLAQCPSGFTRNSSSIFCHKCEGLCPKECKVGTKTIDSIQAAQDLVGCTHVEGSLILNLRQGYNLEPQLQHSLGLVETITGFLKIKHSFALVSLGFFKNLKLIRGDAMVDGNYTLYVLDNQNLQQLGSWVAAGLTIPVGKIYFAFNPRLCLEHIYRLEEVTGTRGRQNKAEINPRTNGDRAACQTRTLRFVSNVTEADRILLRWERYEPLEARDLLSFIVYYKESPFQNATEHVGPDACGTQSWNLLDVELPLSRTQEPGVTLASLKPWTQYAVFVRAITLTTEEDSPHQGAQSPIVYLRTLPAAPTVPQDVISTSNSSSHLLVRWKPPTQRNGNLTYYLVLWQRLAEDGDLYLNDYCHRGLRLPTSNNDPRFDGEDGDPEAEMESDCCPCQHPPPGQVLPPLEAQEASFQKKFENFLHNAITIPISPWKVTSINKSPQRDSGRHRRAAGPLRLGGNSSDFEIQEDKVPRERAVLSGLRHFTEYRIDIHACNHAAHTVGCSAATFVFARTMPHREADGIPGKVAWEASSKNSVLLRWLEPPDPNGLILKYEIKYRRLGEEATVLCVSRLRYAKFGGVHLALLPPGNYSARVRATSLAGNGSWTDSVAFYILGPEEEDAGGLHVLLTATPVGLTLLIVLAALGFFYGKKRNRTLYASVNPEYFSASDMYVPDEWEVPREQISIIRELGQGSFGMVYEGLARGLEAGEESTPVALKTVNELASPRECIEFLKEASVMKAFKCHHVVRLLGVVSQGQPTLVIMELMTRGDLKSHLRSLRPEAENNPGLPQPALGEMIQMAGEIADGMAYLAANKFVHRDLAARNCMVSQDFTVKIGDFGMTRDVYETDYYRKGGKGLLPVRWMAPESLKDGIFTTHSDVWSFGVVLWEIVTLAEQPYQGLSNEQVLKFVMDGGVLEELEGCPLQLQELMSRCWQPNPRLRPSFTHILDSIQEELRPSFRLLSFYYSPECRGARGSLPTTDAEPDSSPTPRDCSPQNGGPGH
PAK4, sequence (O96013 whole entry): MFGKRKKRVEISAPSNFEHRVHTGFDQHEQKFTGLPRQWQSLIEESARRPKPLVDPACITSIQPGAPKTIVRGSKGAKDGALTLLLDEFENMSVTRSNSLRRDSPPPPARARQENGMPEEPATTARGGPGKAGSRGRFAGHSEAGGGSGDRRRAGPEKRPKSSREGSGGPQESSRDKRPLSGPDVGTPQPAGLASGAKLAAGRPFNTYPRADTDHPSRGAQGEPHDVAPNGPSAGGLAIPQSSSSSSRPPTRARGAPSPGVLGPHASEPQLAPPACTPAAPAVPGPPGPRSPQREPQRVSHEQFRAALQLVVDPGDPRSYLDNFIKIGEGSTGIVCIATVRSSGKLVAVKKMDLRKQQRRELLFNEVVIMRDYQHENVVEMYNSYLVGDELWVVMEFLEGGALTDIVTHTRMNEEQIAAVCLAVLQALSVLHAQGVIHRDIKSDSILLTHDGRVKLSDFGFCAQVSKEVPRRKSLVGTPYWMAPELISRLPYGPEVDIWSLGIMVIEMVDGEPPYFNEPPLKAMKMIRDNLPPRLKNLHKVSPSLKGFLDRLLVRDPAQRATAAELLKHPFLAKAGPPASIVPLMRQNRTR

Consider `CNCc1ccc(-c2[nH]c3cc(F)cc4c3c2CCNC4=O)cc1` [Rucaparib], for which the percent of control binding at 10 µM on ABL1-nonphosphorylated (setting [1]) turned out to be 82%; on ADCK4 (setting [1]), 82%; on CAMK1 (setting [1]), 90%; on DLK (setting [1]), 91%; on INSRR (setting [1]), 95%; at MYO3A (setting [1]), 42%. The results for the percent of control binding at 10 µM on PAK4 (setting [1]), on TIE2 (setting [1]) and at TLK1 (setting [1]) were 80%, 92% and 94%, respectively.
As to `Cn1ncnc1[C@H]1c2n[nH]c(=O)c3cc(F)cc(c23)N[C@@H]1c1ccc(F)cc1` [Talazoparib], the percent of control binding at 10 µM on ABL1-nonphosphorylated (setting [2]) was 100%; at ADCK4 (setting [2]) it was 100%; on CAMK1 (setting [2]), 95%; at DLK (setting [2]), 100%; at INSRR (setting [2]) it was 100%; at MYO3A (setting [2]), 83%. Further, the results for the percent of control binding at 10 µM on PAK4 (setting [2]), on TIE2 (setting [2]) and at TLK1 (setting [2]) were 89%, 100% and 99%, respectively.
In the case of `NC(=O)c1cccc2cn(-c3ccc([C@@H]4CCCNC4)cc3)nc12` [Niraparib], the percent of control binding at 10 µM was determined as 94% on ABL1-nonphosphorylated (setting [3]); 100% on ADCK4 (setting [3]); 80% at CAMK1 (setting [3]); 100% on DLK (setting [3]); 92% on INSRR (setting [3]); 72% at MYO3A (setting [3]). The percent of control binding at 10 µM was 88% on PAK4 (setting [3]), 98% at TIE2 (setting [3]) and 85% at TLK1 (setting [3]).
Take `O=C(c1cc(Cc2n[nH]c(=O)c3ccccc23)ccc1F)N1CCN(C(=O)C2CC2)CC1` [Olaparib]: the percent of control binding at 10 µM was 87% at ABL1-nonphosphorylated (setting [4]); 97% on ADCK4 (setting [4]); 100% at CAMK1 (setting [4]); 96% at DLK (setting [4]); 100% at INSRR (setting [4]); 100% at MYO3A (setting [4]). In addition, the percent of control binding at 10 µM is 100% at PAK4 (setting [4]), 100% at TIE2 (setting [4]) and 94% on TLK1 (setting [4]).
